Data on 22 compounds can be found in patent US9381191B2, “Imidazopyridine derivatives useful in treating diabetes” (METABRAIN RESEARCH, priority 2012, dated 2016).

For experiment [1], the system named is isolated rat hepatocytes. In words: Hepatic production of glucose, 3 h incubation. In kind it is cell-based, Wistar rat. The note with it: for activity at 50 µM / activity at 100 µM: Hepatocyte, rat hepatocytes; for activity at 50 µM: read-out: HGP % of ctrl @ 50 μM; for activity at 100 µM: read-out: HGP % of ctrl @ 100 μM. Here is the method: The hepatocytes are isolated from Wistar rat liver having fasted for 24 h after perfusion of collagenase in the portal vein. 1) The freshly isolated hepatocytes are sown in 6-well plates coated with collagen and containing an adhesion medium (Williams Medium). After adhesion, the medium is replaced with RPMI 1640 medium without any glucose, containing hydrocortisone (7·10^−5M) for a duration from 16 to 18 h. The next day, the glucose hepatic production test is conducted in a Krebs medium for 3 h. The basal conditions are cells incubated with only Krebs, the stimulated conditions are the cells placed in Krebs+lactate+pyruvate, the produced conditions are the cells exposed to chemical compounds in a Krebs/lactate/pyruvate medium. In the case when the compounds are dissolved in DMSO, all the conditions of the tests are met in the presence of a final concentration of 0.1% DMSO. The positive control of the test is the mercaptopicolinate known for its inhibitory action on hepatic production of glucose via the phosphoenolpyruvate carboxykinase. For short term treatments, the compounds are incubated for 3 h. For long term treatments, the compounds are incubated for 20 h at the moment when the hepatocytes are cultivated in RPMI and then added during the hepatic production test for 3 h. At the end of the 3 hours of incubation, the supernatant is recovered for measurement of glucose with a colorimetric method using glucose oxidase. The cells are lysed with a 0.1% NaOH aqueous solution in order to measure the amount of protein with the Lowry method. The results are expressed in mmol of glucose per mg of protein.

Experiment [2] has as its system INS-1 cells. The experiment can be described thus: Stimulation test of insulin secretion by INS-1 cells. The experiment is classed as cell-based. The note with it: Rattus norvegicus, INS1, 1 h, insulin secretion by INS-1 cells in response to glucose. The method, then: The different compounds were tested on an INS-1 beta-pancreatic line in order to evaluate their capability of potentializing the insulin secretion in response to glucose. Very briefly, the cells are cultivated in a culture medium, RPMI 1640 with 10 mM glucose containing 1 mM of sodium pyruvate, 50 μM of 2-mercaptoethanol, 2 mM of glutamine, 10 mM of HEPES, 100 IU/ml of penicillin, 100 μg/ml of streptomycin and 10% of inactivated fetal calf serum, as described by Asfari et al.. For the insulin secretion test, the INS-1 cells are sown and cultivated in 96-well plates. After 3 days of cultivation at 37° C. in a humid atmosphere (95% air/5% CO2), the medium is removed and the cells are incubated for 16 h in a medium containing 5 mM of glucose and 1% of inactivated fetal calf serum. On the day of the test, the cells are washed with a Krebs buffer (pH 7.4) containing 0.1% of bovine albumin and then pre-incubated for 30 min at 37° C. in this same buffer containing 2.8 mM of glucose. Finally, the cells are again washed with Krebs buffer and then incubated for 1 h in the buffer of the secretion test (Krebs, pH 7.4 containing 0.1% of bovine albumin and 3.5 mM of glucose and molecules to be evaluated). At the end of the test, the cell supernatant is recovered in order to measure therein the secreted insulin, by means of an ELISA kit using a rat anti-insulin antibody (ELISA Alpco Cat no. 80-INSRTH-E10). Each condition is tested in triplicate. The 3.5 mM glucose, the 10^−7M GLP-1 and the Forskoline 10^−7/IBMX 10^−5M mixtures are used as positive controls of the test. A compound stimulates the secretion of insulin if this factor is greater than or equal to 130% of the control for a given glucose dose.

Consider `O=C(O)COCc1nc2ccccn2c1C#Cc1cccc(OC(F)(F)F)c1` [Derivative 29, 2-((3-((3-(trifluoromethoxy)phenyl)-ethynyl)imidazo[1,2-a]pyridin-2-yl)methoxy)acetic acid], for which, in experiment [1], the activity at 50 µM was determined as 63% and the activity at 100 µM was 40%. The “inhibition of hepatic production of glucose” value (shortened to “inhibition”) in experiment [1] (dose of 100 μM) is recorded as “strongest inhibitions”.

With `CCOC(=O)COCc1nc2ccccn2c1C#Cc1cccc(C(F)(F)F)c1` [Derivative 7, ethyl 2-((3-((3-(trifluoromethyl)-phenyl)ethynyl)imidazo[1,2-a]pyridin-2-yl)methoxy)acetate], in experiment [1], the activity at 50 µM worked out at 55% and the activity at 100 µM came out at 45%. The “inhibition” value in experiment [1] (with two doses) was “strongest inhibitions”.

Regarding `CCOC(=O)COCc1nc2ccccn2c1C#Cc1ccc(C)cc1` [Derivative 2, ethyl 2-((3-(p-tolylethynyl)-imidazo[1,2-a]pyridin-2-yl)-methoxy)acetate], in experiment [2] (10 μM, read-out: HGP % of ctrl @ 10 μM), the insulin secretion, % of control at 10 µM came to 127%. Moreover, the insulin secretion, % of control at 50 µM in experiment [2] (50 μM, read-out: HGP % of ctrl @ 50 μM) was determined as 333%.

As for `CCOC(=O)COCc1nc2ccccn2c1C#Cc1ccc(F)c(F)c1` [Derivative 10, ethyl 2-((3-((3,4-difluorophenyl)-ethynyl)imidazo[1,2-a]pyridin-2-yl)methoxy)acetate], in experiment [1], the activity at 50 µM is 86% and the activity at 100 µM is 71%.

Consider `CCOC(=O)COCc1nc2ccccn2c1C#Cc1cccc(F)c1` [Derivative 23, ethyl 2-((3-((3-fluorophenyl)-ethynyl)imidazo[1,2-a]pyridin-2-yl)methoxy)acetate], for which, in experiment [1], the activity at 50 µM was found to be 95% and the activity at 100 µM was found to be 73%.

Take `O=C(O)CSCc1nc2ccc(Cl)cn2c1C#Cc1cccc(OC(F)(F)F)c1` [Derivative 119, 2-[[6-chloro-3-[2-[3-(trifluoro-methoxy)phenyl]ethynyl]imidazo [1,2-a]pyridin-2-yl]methyl-sulfanyl]acetic acid]: in experiment [1], the activity at 50 µM was determined as 73%.

Consider `O=C(O)CSCc1nc2ccccn2c1C#Cc1cccc(C(F)(F)F)c1` [Derivative 115, 2-[[3-[2-[3-(trifluoromethyl)phenyl]-ethynyl]imidazo[1,2-a]pyridin-2-yl]methylsulfanyl]acetic acid], for which, in experiment [1], the activity at 50 µM turned out to be 94% and the activity at 100 µM worked out at 54%. Further, in experiment [1] (dose of 100 μM), the “inhibition” value is listed as “strongest inhibitions”.

Turning to `CCOC(=O)COCc1nc2ccccn2c1C#Cc1ccc(OC)cc1` [Derivative 4, ethyl 2-((3-((4-methoxyphenyl)-ethynyl)-imidazo[1,2-a]pyridin-2-yl)-methoxy)acetate], in experiment [1], the activity at 50 µM was 81% and the activity at 100 µM was 74%.

For `O=C(O)c1ccccc1OCc1nc2ccccn2c1C#Cc1cccc(C(F)(F)F)c1` [Derivative 89, 2-((3-((3-(trifluoromethyl)phenyl)-ethynyl)imidazo[1,2-a]pyridin-2-yl)methoxy)benzoic acid], in experiment [1], the activity at 50 µM is 78% and the activity at 100 µM was 33%. Also, the “inhibition” value in experiment [1] (dose of 100 μM) was “strongest inhibitions”.

Consider `O=C([O-])COCc1nc2ccccn2c1C#Cc1cccc(C(F)(F)F)c1.[Na+]` [Derivative 51, sodium 2-((3-((3-(trifluoromethyl)-phenyl)ethynyl)imidazo[1,2-a]pyridin-2-yl)methoxy)acetate], for which, in experiment [1], the activity at 50 µM was found to be 61% and the activity at 100 µM was 45%. Further, in experiment [1] (dose of 100 μM), the “inhibition” value is given as “strongest inhibitions”.

For `O=C(O)c1cccc(OCc2nc3ccccn3c2C#Cc2ccccc2)c1` [Derivative 93, 3-((3-(phenylethynyl)imidazo[1,2-a]pyridin-2-yl)methoxy) benzoic acid], in experiment [1], the activity at 50 µM was found to be 26% and the activity at 100 µM was found to be 19%. Besides, the “inhibition” value in experiment [1] (with two doses) was “strongest inhibitions”.

For `O=C(NO)c1ccccc1OCc1nc2ccccn2c1C#Cc1ccc(F)cc1` [Derivative 96, 2-((3-((4-fluorophenyl)ethynyl)-imidazo[1,2-a]pyridin-2-yl)-methoxy)-N-hydroxybenzamide], in experiment [1], the activity at 50 µM is 81% and the activity at 100 µM came out at 66%.

For the compound `O=C(O)COCc1nc2ccccn2c1C#Cc1cccc(OC(F)F)c1` [Derivative 35, 2-((3-((3-(difluoromethoxy)phenyl)-ethynyl)imidazo[1,2-a]pyridin-2-yl)methoxy)acetic acid], in experiment [1], the activity at 50 µM amounted to 73% and the activity at 100 µM stood at 64%.

As for `O=C(CSCc1nc2ccccn2c1C#Cc1cccc(OC(F)(F)F)c1)Nc1cccnc1` [Derivative 126, N-(3-pyridyl)-2-[[3-[2-[3-(trifluoromethoxy)phenyl]ethynyl]imidazo[1,2-a]pyridin-2-yl]methylsulfanyl]acetamide], in experiment [1], the activity at 50 µM stood at 72% and the activity at 100 µM was 68%.

Regarding `CCOC(=O)CSCc1nc2ccccn2c1C#Cc1cccc(C(F)(F)F)c1` [Derivative 108, ethyl 2-[[3-[2-[3-(trifluoromethyl)-phenyl]ethynyl]imidazo[1,2-a]pyridin-2-yl]methylsulfanyl]acetate], in experiment [1], the activity at 50 µM was determined as 89% and the activity at 100 µM was 64%.

Consider `COC(=O)c1ccccc1OCc1nc2ccccn2c1C#Cc1cccc(C(F)(F)F)c1` [Derivative 77, methyl 2-((3-((3-(trifluoromethyl)-phenyl)ethynyl)imidazo[1,2-a]pyridin-2-yl)methoxy)benzoate], for which, in experiment [1], the activity at 50 µM turned out to be 87% and the activity at 100 µM was determined as 50%. Also, in experiment [1] (dose of 100 μM), the “inhibition” value is reported as “strongest inhibitions”.

With `CCOC(=O)CSCc1nc2ccccn2c1C#Cc1cccc(OC(F)(F)F)c1` [Derivative 109, ethyl 2-[[3-[2-[3-(trifluoromethoxy)-phenyl]ethynyl]imidazo[1,2-a]pyridin-2-yl]methylsulfanyl]acetate], in experiment [1], the activity at 50 µM came out at 80% and the activity at 100 µM was 61%.

In the case of `O=C(O)CSCc1nc2ccccn2c1C#Cc1cccc(OC(F)(F)F)c1` [Derivative 116, 2-[[3-[2-[3-(trifluoromethoxy)-phenyl]ethynyl]imidazo[1,2-a]pyridin-2-yl]methylsulfanyl] acetic acid], in experiment [1], the activity at 50 µM was 88% and the activity at 100 µM was determined as 64%.

Consider `COc1cccc(C#Cc2c(COCC(=O)O)nc3ccccn23)c1` [Derivative 30, 2-((3-((3-methoxyphenyl)ethynyl)-imidazo[1,2-a]pyridin-2-yl)methoxy)acetic acid], for which, in experiment [1], the activity at 50 µM stood at 74% and the activity at 100 µM was 60%.

For `O=C(O)c1ccc(OCc2nc3ccccn3c2C#Cc2cccc(C(F)(F)F)c2)cc1` [Derivative 90, 4-((3-((3-(trifluoromethyl)phenyl)-ethynyl)imidazo[1,2-a]pyridin-2-yl)methoxy)benzoic acid], in experiment [1], the activity at 50 µM worked out at 77% and the activity at 100 µM came to 27%. In addition, the “inhibition” value in experiment [1] (dose of 100 μM) was “strongest inhibitions”.

In the case of `CN(C)CCNC(=O)c1ccccc1OCc1nc2ccccn2c1C#Cc1ccc(F)cc1` [Derivative 95, N-(2-(dimethylamino)ethyl)-2-((3-((4-fluorophenyl)ethynyl)-imidazo[1,2-a]pyridin-2-yl)methoxy)benzamide], in experiment [1], the activity at 50 µM came to 65% and the activity at 100 µM was 62%.

In the case of `CC1(C)COC(=O)C1OCc1nc2ccccn2c1C#Cc1cccc(C(F)(F)F)c1` (stereo not drawn) [Derivative 99, 4,4-dimethyl-3-[[3-[2-[3-(trifluoromethyl)phenyl]ethynyl]imidazo[1,2-a]pyridin-2-yl]methoxy]-tetrahydrofuran-2-one], in experiment [1], the activity at 50 µM was found to be 85% and the activity at 100 µM was 68%.
